Test results published in paper PMC7489219 (Molecular Brain, 2020).
Structures can show the parent of a compound that is named as a salt.

These compounds were tested on T1, primary mouse cortical neurons (assay: cells). Details: Cortical neurone, 20 h, read-out: % inhibition, inhibition of NMDA-induced cell death (protection score), 30 min pre-treatment.
T1 construct: primary cortical neurons, DIV 10
Design: Protection from NMDA-induced (30 uM, 10 min) neuronal death; Hoechst nuclear morphology by automated microscopy
Protocol: On DIV 10, compounds were applied to the cells reaching an end concentration of 10 μM. Cells were incubated for 30 min at 37 °C, 5% CO2 before adding NMDA (30 μM). Cells were incubated for another 10 min in the incubator, then washed twice with defined minimal medium containing 10 μM of the respective compound and incubated for an additional 20 h before readout. Untreated (no NMDA) and NMDA-only stimulated wells were treated with 0.1% DMSO. […] After 15 min of incubation at room temperature, cells were washed twice with phosphate buffered saline. […] Dead neurons were identified by amorphous or shrunken nuclei using CellProfiler and CellProfiler Analyst software. For all cell death analyses the experimental unit (N) is defined as an independent experiment using an independent neuronal preparation. For each independent experiment, data from 3 replicate wells (i.e., from 36 images), representing an average of 3000 cells was analyzed per condition. The survival rate S was calculated by dividing the number of living cells by the total number of cells. The survival rate was then used to calculate the protection score according to Scompound−Svehicle/Suntreated−Svehicle×100=%protection , where ‘compound’ refers to compound + NMDA treatment, ‘vehicle’ refers to vehicle + NMDA treatment, and ‘untreated’ refers to DMSO control. […] As a proof of principle, we next used our assay to screen two commercially available drug libraries. In these screens, primary cortical cells were incubated with test compounds at 10 μM concentration for 30 min before addition of 30 μM NMDA. After 10 min NMDA treatment, cells were washed with fresh medium and kept in the presence of test compounds for 20 h until assessment of cell viability. […] This library covers structurally diverse drugs from several fields such as oncology, cardiology, immunology, and neurology/psychiatry.

First: O=C(/C=C/c1ccc(O)c(O)c1)O[C@@H]1C[C@](O)(C(=O)O)C[C@@H](O)[C@H]1O [Chlorogenic acid]
Second: O=C1c2c(O)cc(O)cc2O[C@H](c2cc(O)c(O)c(O)c2)[C@H]1O [Dihydromyricetin (Ampeloptin)]
The inhibition at 10 µM of the first is lower: -2.16% for the first, 21.4% for the second.

Going from NS(=O)(=O)c1cc2c(cc1Cl)N=CNS2(=O)=O [Chlorothiazide] to Nc1cc(C(Cl)=C(Cl)Cl)c(S(N)(=O)=O)cc1S(N)(=O)=O [Clorsulon], the inhibition at 10 µM falls from 31.3% to -1.66%.

First: Oc1c(Cl)cc(Cl)c2cccnc12 [Chloroxine]
Second: Clc1cccc(Cl)c1NC1=NCCN1 [Clonidine hydrochloride (Catapres)]
The inhibition at 10 µM of the first is lower: -4.86% for the first, -1.98% for the second.

Compared with CN(C)CCCN1c2ccccc2Sc2ccc(Cl)cc21 [Chlorpromazine (Sonazine)], CN(C)CCCN1c2ccccc2CCc2ccc(Cl)cc21 [Clomipramine hydrochloride (Anafranil)] is higher in inhibition at 10 µM: -4.78% for the first, -0.839% for the second.

Going from CN(C)CC/C=C1/c2ccccc2Sc2ccc(Cl)cc21 [Chlorprothixene] to CN1CCN(C2=Nc3cc(Cl)ccc3Nc3ccccc32)CC1 [Clozapine (Clozaril)], the inhibition at 10 µM falls from -2.97% to -5.01%.

Compared with O=c1cc(-c2ccccc2)oc2cc(O)cc(O)c12 [Chrysin], O=c1c(-c2ccc(O)cc2)coc2cc(O)ccc12 [Daidzein] is lower in inhibition at 10 µM: -0.0506% for the first, -2.08% for the second.

First: Cc1cc(O)c2c(c1)C(=O)c1cccc(O)c1C2=O [Chrysophanic acid (Chrysophanol)]
Second: C[C@H]1COC2=C1C(=O)C(=O)c1c2ccc2c1CCCC2(C)C [Cryptotanshinone]
The inhibition at 10 µM of the first is higher: 8.58% for the first, -2.15% for the second.

First: COCCOC(=O)C1=C(C)NC(C)=C(C(=O)OC/C=C/c2ccccc2)C1c1cccc([N+](=O)[O-])c1 (stereo not shown) [Cilnidipine]
Second: Cc1onc(-c2ccccc2Cl)c1C(=O)N[C@@H]1C(=O)N2[C@@H]1SC(C)(C)[C@@H]2C(=O)O [Cloxacillin sodium (Cloxacap)]
The inhibition at 10 µM of the first is lower: -16% for the first, 0.144% for the second.

First: O=C1CCc2cc(OCCCCc3nnnn3C3CCCCC3)ccc2N1 [Cilostazol]
Second: CC(=O)OCC(=O)[C@@]1(O)CC[C@H]2[C@@H]3CCC4=CC(=O)CC[C@]4(C)[C@H]3C(=O)C[C@@]21C [Cortisone acetate (Cortone)]
The inhibition at 10 µM of the first is lower: -13.8% for the first, -0.736% for the second.

Going from CN/C(=N\CCSCc1nc[nH]c1C)NC#N [Cimetidine (Tagamet)] to CN(C)/N=N/c1nc[nH]c1C(N)=O [Dacarbazine (DTIC-Dome)], the inhibition at 10 µM falls from -0.847% to -1.39%.

Going from C=C[C@H]1CN2CC[C@H]1C[C@H]2[C@H](O)c1ccnc2ccccc12 [Cinchonidine] to COC(=O)[C@H](c1ccccc1Cl)N1CCc2sccc2C1 [Clopidogrel (Plavix)], the inhibition at 10 µM falls from -3.04% to -12%.

Going from Nc1nc(Cl)nc2c1ncn2[C@H]1C[C@H](O)[C@@H](CO)O1 [Cladribine] to Nc1nc(Cl)nc2c1ncn2[C@@H]1O[C@H](CO)[C@@H](O)[C@@H]1F [Clofarabine], the inhibition at 10 µM falls from -1.65% to -10.2%.

Going from CC[C@H]1OC(=O)[C@H](C)[C@@H](O[C@H]2C[C@@](C)(OC)[C@@H](O)[C@H](C)O2)[C@H](C)[C@@H](O[C@@H]2O[C@H](C)C[C@H](N(C)C)[C@H]2O)[C@](C)(OC)C[C@@H](C)C(=O)[C@H](C)[C@@H](O)[C@]1(C)O [Clarithromycin (Biaxin, Klacid)] to CC(=O)OCC(=O)[C@@]12N=C(C)O[C@@H]1C[C@H]1[C@@H]3CCC4=CC(=O)C=C[C@]4(C)[C@H]3[C@@H](O)C[C@@]12C [Deflazacort (Calcort)], the inhibition at 10 µM falls from -1.54% to -1.74%.

First: CCC[C@@H]1C[C@@H](C(=O)N[C@@H]([C@H]2O[C@H](SC)[C@H](O)[C@@H](O)[C@H]2O)[C@H](C)Cl)N(C)C1 [Clindamycin hydrochloride (Dalacin)]
Second: OC[C@H]1OC(O)[C@H](O)[C@@H](O)[C@@H]1O (stereo partly drawn) [Dextrose (D-glucose)]
The inhibition at 10 µM of the first is higher: 2.41% for the first, -6.8% for the second.

Compared with CCOC(=O)C(C)(C)Oc1ccc(Cl)cc1 [Clofibrate (Atromid-S)], O=C(O)Cc1ccccc1Nc1c(Cl)cccc1Cl [Diclofenac] is lower in inhibition at 10 µM: -1.89% for the first, -4.34% for the second.

Going from CCN(CC)CCOc1ccc(C(=C(Cl)c2ccccc2)c2ccccc2)cc1 [Clomifene citrate (Serophene)] to CN(C)[C@@H](CCOc1cccc2ccccc12)c1ccccc1 [Dapoxetine hydrochloride (Priligy)], the inhibition at 10 µM falls from -1.18% to -1.89%.

Compared with Clc1ccccc1C(c1ccccc1)(c1ccccc1)n1ccnc1 [Clotrimazole (Canesten)], CN(C)c1ccc(C(=C2C=CC(=[N+](C)C)C=C2)c2ccc(N(C)C)cc2)cc1 [Crystal violet] is lower in inhibition at 10 µM: -1.47% for the first, -3.37% for the second.

First: COC1=C(OC)C(=O)C(C/C=C(\C)CC/C=C(\C)CC/C=C(\C)CC/C=C(\C)CC/C=C(\C)CC/C=C(\C)CC/C=C(\C)CC/C=C(\C)CC/C=C(\C)CCC=C(C)C)=C(C)C1=O [Coenzyme Q10(CoQ10)]
Second: CCCCCCCCCC(=O)N[C@@H](Cc1c[nH]c2ccccc12)C(=O)N[C@H](CC(N)=O)C(=O)N[C@@H](CC(=O)O)C(=O)N[C@@H]1C(=O)NCC(=O)N[C@@H](CCCN)C(=O)N[C@@H](CC(=O)O)C(=O)N[C@H](C)C(=O)N[C@@H](CC(=O)O)C(=O)NCC(=O)N[C@H](CO)C(=O)N[C@@H]([C@H](C)CC(=O)O)C(=O)N[C@@H](CC(=O)c2ccccc2N)C(=O)O[C@@H]1C [Daptomycin]
The inhibition at 10 µM of the first is higher: 9.82% for the first, -3.03% for the second.

Compared with C=C1C[C@@]2(O)O[C@@]3(C[C@H]2C(C)C)[C@@H](C)CC[C@@H]13 [Curcumol], C[C@@H]1CC[C@H]2[C@@H](C)C(O)O[C@@H]3O[C@@]4(C)CC[C@@H]1[C@]32OO4 (stereo partly shown) [Dihydroartemisinin (DHA)] is lower in inhibition at 10 µM: 7.41% for the first, -4.3% for the second.

Compared with N=c1ccn2c(n1)O[C@H]1[C@H](O)[C@@H](CO)O[C@H]12 [Cyclocytidine HCl], Nc1ccn([C@@H]2O[C@H](CO)[C@@H](O)[C@@H]2O)c(=O)n1 [Cytarabine] is higher in inhibition at 10 µM: -2.19% for the first, 38.3% for the second.

Compared with CN[C@@H](C)[C@H]1[C@H](O)C[C@@]2(C)[C@@H]3CC[C@H]4C(C)(C)[C@@H](NC)CC[C@@]45C[C@@]35CC[C@]12C [Cyclovirobuxin D (Bebuxine)], CC1(C)O[C@@H]2C[C@H]3[C@@H]4CCC5=CC(=O)C=C[C@]5(C)[C@H]4[C@@H](O)C[C@]3(C)[C@]2(C(=O)CO)O1 [Desonide] is lower in inhibition at 10 µM: 17.2% for the first, 9.64% for the second.

Compared with O=c1cccc2n1C[C@@H]1CNC[C@H]2C1 [Cytisine (Baphitoxine, Sophorine)], O=c1[nH]cnc2c1ncn2[C@H]1CC[C@@H](CO)O1 [Didanosine (Videx)] is higher in inhibition at 10 µM: -0.723% for the first, 11.6% for the second.

First: OC[C@@H](O)[C@@H](O)[C@H](O)[C@H](O)CO [D-Mannitol (Osmitrol)]
Second: Nc1ncn([C@H]2C[C@H](O)[C@@H](CO)O2)c(=O)n1 [Decitabine]
The inhibition at 10 µM of the first is lower: 5.76% for the first, 11.3% for the second.

Compared with Cc1nc(Nc2ncc(C(=O)Nc3c(C)cccc3Cl)s2)cc(N2CCN(CCO)CC2)n1 [Dasatinib (BMS-354825)], C[C@@H]1C[C@H]2[C@@H]3CCC4=CC(=O)C=C[C@]4(C)[C@@]3(F)[C@@H](O)C[C@]2(C)[C@@]1(O)C(=O)CO [Dexamethasone] is higher in inhibition at 10 µM: -9.79% for the first, -9.25% for the second.

Work on C[C@@H](CN1CC(=O)NC(=O)C1)N1CC(=O)NC(=O)C1 [Dexrazoxane Hydrochloride] yielded an inhibition at 10 µM of -16.2%.
